The source of these data is patent publication US20110236393A1, “MONOCLONAL ANTIBODY PRODUCTION IN B CELLS AND USES THEROF” (Duke University, priority 2008, published 2011).

Experiment [1] deals with PBMC infected with EBV (B95-8). Kind of experiment: EBV transformation efficiency (EBV-induced LCL outgrowth following PBMC infection). It counts as cell-based, human. As to conditions: for increase of EBV-mediated transformation efficiency: relative to DMSO (set to 1), LCL positive wells at six weeks post infection. How it is done:
FIGS. 3A and 3B are graphical plots showing the inhibition of ATM and Chk2 kinases increased EBV transformation efficiency. […] The percentages of wells positive for LCLs at six weeks post infection were plotted relative to the amount of B95-8 virus used per well. The efficiency of transformation was determined by the amount of virus necessary to induce 63% positive wells as indicated by a Poisson's distribution. This value was set to 1 for the DMSO treated infections. The difference between DMSO and 5 μM ATMi treated infections was ˜30-fold increased efficiency in the presence of 5 μM ATMi. In FIG. 3B similar experiments were performed using DMSO (diamond), 2 μM Chk2i II (square), or 5 μM Chk2i II (triangle).
Methods of infecting B cells with EBV are known to those of skill in the art. In some embodiments B cells can be infected with EBV as disclosed in the Examples below. In some embodiments primary human peripheral blood mononuclear cells (PBMCs) can be infected with the EBV strain B95-8 with dilutions starting from a multiplicity of infection such that all B cells express the EBV latent gene expression program (approximately 100 particles/cell) through a dilution where no LCLs grow out. Culturing of the EBV-infected cells in RPMI 1640, 10% FCS, antibiotics, and in the presence of cyclosporine to suppress T cell activity, allows for the outgrowth of LCLs at approximately 1-5% efficiency (transformant/infected cell) within 5 weeks. Scoring of LCL outgrowth can be performed using techniques and analytical equipment as is know to those of skill in the art. By way of example and not limitation, scoring of LCL outgrowth can be performed using a Cellomics Vti Array Scan instrument (ThermoFisher Scientific, Waltham, Mass., United States of America) following Calcein-AM live cell fluorescent staining, which allows for an unbiased readout of LCL outgrowth. […]
Likewise, the downstream ATM target, Chk2, was evaluated for its ability to inhibition EBV-mediated proliferation of B cells. […]

Experiment [2] relates to CD19+ B cells of CFSE-stained PBMC. Nature of the experiment: CFSE/CD19 B cell proliferation after EBV infection of PBMC. The format is cell-based, human. The conditions noted are these: for B cell proliferation in the absence of EBV: 5 μM, no EBV, six days post treatment; for B-cell proliferation (CD19+/CFSElo cells of total PBMCs): EBV infection in presence of 1, 2, 5, 10 μM inhibitor, 14 days post infection. From the text: FIGS. 4A, 4B and 4C show inhibition of ATM or Chk2 increased the proliferation of B cells following EBV infection. FIG. 4A is a dot plot of EBV-mediated proliferation following infection of CFSE-stained PBMC, detected by FACS using CD19-PE staining of B cells and CFSE to monitor cell divisions, at 2 and 6 days post infection. At day 2 post infection there was little proliferation, while by day 6 there was clear B cell proliferation induced by the virus. FIG. 4B is a histogram illustrating the effect of CFSE-stained PBMC infected with EBV in the presence of increasing amounts of ATMi or Chk2i (0.1% DMSO, 1 μM, 2 μM, 5 μM, and 10 μM). The percentage of CD19+/CFSElo cells of total PBMCs at 14 days post infection are plotted. The data shown are the average values from two different normal donors with error bars reflecting the standard error. […] FIG. 4C includes dot plots of the proliferation of CFSE-stained PBMC treated with DMSO, 5 μM ATMi, 5 μM Chk21, or infected with EBV. Six days post treatment/infection cells were stained with CD19-PE antibody and proliferation of B cells was assessed. […] The difference in relative B cell proliferation at day six between FIGS. 4A and 4C was due to normal donor variation.
To further characterize the ATM- and Chk2-dependent block to EBV-mediated transformation, B cell proliferation early after infection was analyzed. PBMC were infected and B cell proliferation was followed over time using the fluorescent dye CFSE and CD19 staining of B cells. CFSE staining assays proliferation as its fluorescence is halved in daughter cells. PBMC were stained with the cell permeable dye carboxyfluorescein succinimidyl ester (CFSE). This dye enters the cytoplasm and is cleaved to fluoresce immediately by intracellular esterases. The dye is maintained in cells at a concentration that divides by half with each cell division. Thus, each two-fold reduction of CFSE fluorescence readout by flow cytometry correlates with one cycle of proliferation. CFSE-labeled PBMC were infected with EBV and B cell proliferation was monitored by CD19-PE or APC labeling cells at different days after infection. Flow cytometry was used to analyze the CD19 and CFSE levels in gated live cells (by forward versus side scatter). The percentage of CD19+ cells that have proliferated (CFSElo) relative to total PBMC cell numbers were plotted to indicate a relative proliferation index in panel B of FIG. 4. Using the CD19 marker and CFSE the proliferation of B cells during the early stages of transformation were specifically followed (FIG. 4A).
The above experiments were followed with washout and time of addition experiments using either ATM or Chk2 inhibitor. EBV-infected B cells were determined to be sensitive to the inhibitors between 4 and 8 days after infection. […]

The subject of experiment [3] is IgG+ memory B cells infected with EBV B95-8. Nature of the experiment: Outgrowth of EBV-infected IgG+ memory B cells (positive wells at 4 weeks). The format is cell-based, human. The conditions noted are these: EBV B95-8 MOI 5, CpG 2.5 μg/mL, Chk2i 5 μM, 1,000 and 300 cells per well. From the text: This Example pertains to the evaluation of whether inhibition of the DDR, in particular Chk2, is capable of increasing the efficiency of EBV transformation of memory B cells and whether the frequency of antibody secreting cells will increase. As a positive control, CpG 2006 TLR9 agonist was included either alone or together with Chk21. The CpG employed was CpG 2006 (Hartmann and Krieg, The Journal of Immunology, 2000, 164: 944-952.). The Chk2i employed was Chk2i II (Arienti et al., 2005 J. Med Chem 48:1873-1875).
Normal donor peripheral blood mononuclear cells (PBMC) were sorted to >95% pure IgG+ memory B cells using a scheme of positive selection for CD19 and CD27 and negative selection of IgM, IgD, and IgA. Cells were then infected with EBV B95-8 strain at an MOI of 5 and either DMSO, CpG (2.5 μg/mL), Chk2i (5 μM), or CpG +Chk21. Cells were seeded in 96-well plates with 50,000 lethally irradiated J774A.1 cells at different amounts. […] Wells were analyzed at 4 weeks for outgrowth and positive wells are plotted as a percentage for each condition. […] These were measured by IgG-specific ELISA.

A further experiment relates to CD19+ B cells. Kind of experiment: B cell number after mitogen stimulation (flow cytometry count). It counts as cell-based, human. The conditions noted are these: 5 μM Chk2i II vs DMSO, different time points. How it is done: FIG. 11 is bar graph showing that Chk2 […] the total B cell number following CpG treatment or EBV infection. PBMC were stimulated with CpG 2006 (2.5 μg/mL) or infected with EBV (B95-8, MOI 5). CD19+ B cells were assayed 7 days after treatment of infection using flow cytometry. The total number of viable CD19+ B cells is plotted.
FIG. 12 is a histogram showing that Chk2 inhibition increased B cell number following CpG or CpG system stimulation. Cells were assayed at different time points after stimulation. Circles are CpG treated samples and squares are CpG system treated samples. Open symbols are DMSO-treated and closed symbols are Chk21-treated.
Inhibition of the DDR increased B Cell proliferation in response to mitogens This Example pertains to inhibition of the DDR signaling pathway as a means to increase B cell mitogen induced proliferation. In FIG. 11 inhibition of Chk2 increased the number of B cells proliferating following either CpG DNA treatment or EBV infection as B cell mitogens. […] Total B cell number refers to CD19+ cells gated for viability using forward and side scatter and normalized to polystyrene beads.
The proliferation of cells in response to a combination of mitogenic signals was also assayed in the presence of a DNA damage response inhibitor. […] Cells were counted at different time points using the assay described in Example 10. […]

Experiment [4] has as its system memory B cells from chronic HIV-1-infected patients. Kind of experiment: Frequency of IgG positive cell clones of EBV transformed memory B cells. It counts as cell-based, human. As to conditions: EBV transformation in presence vs absence of Chk2i II. From the text: FIG. 13 is a scatter plot of the frequency of IgG positive cell clones of EBV transformed memory B cells from chronic HIV-1-infected patients in the presence or absence of Chk2i II. An increase in the frequency of IgG positive cell clones in the presence of Chk2i II was observed.
Identification of a HIV-Specific Neutralizing Antibody Following EBV Transformation of Memory B Cells from a Patient Chronically Infected with HIV in the Presence of an Inhibitor of the DNA Damage Response Using the methods of the presently disclosed subject matter, memory B cells from a chronic HIV-1-infected patient were EBV transformed. An increase in the frequency of IgG positive cell clones in the presence of Chk2i II was observed (FIG. 13). It was then determined whether these antibodies would specifically recognize HIV glycoproteins and whether they had biological (e.g. neutralizing) activity. Several potentially HIV-1 neutralizing antibodies were identified during initial screening of the cell culture supernatants. One of these was cloned into a hetero-hybridoma cell line and the IgG mAb was purified (SMB2-2). The mAb bound to HIV-1 gp120 and gp140 proteins (FIG. 14) and captured HIV-1 virions (FIG. 15) and neutralized infection of HIV-1 strains SF162 and MN in vitro (FIG. 16). In preliminary experiments, SMB2-2 neutralized infection of HIV-1 strains SF162 and MN in vitro with an IC50˜10 μg/mL. […]

For experiment [5], the system named is Chk1 and over 30 other serine/threonine kinases. The conditions noted are these: Arienti et al., 2005; cited from earlier work.

Structures are written as SMILES.

With `O=c1cc(-c2cccc3c2Sc2ccccc2S3)oc(N2CCOCC2)c1` [ATMi], the “increase of EBV-mediated transformation efficiency” value is given as “approximately 3 fold” in experiment [1] (2 μM inhibitor) and approximately 30 fold in experiment [1] (5 μM inhibitor). For the same compound, the “B cell proliferation in the absence of EBV” value in experiment [2] is “No effect”. The “B-cell proliferation (CD19+/CFSElo cells of total PBMCs)” value in experiment [2] is listed as “dose dependent increase”.
With `CC(=O)c1ccc2c(c1)C=C(c1ccc(Oc3ccc(Cl)cc3)cc1)C2` [Chk2i II], in experiment [1] (2 μM and 5 μM vs DMSO), the “EBV transformation efficiency (in words)” value is “dramatic and dose-dependent increase”. In experiment [2], the “B cell proliferation in the absence of EBV” value is on record as “No effect” and the “B-cell proliferation (CD19+/CFSElo cells of total PBMCs)” value was “dose dependent increase”. Besides, the “outgrowth of memory B cells (positive wells)” value in experiment [3] was “increased the ability of B cells to grow out”. In addition, the “B cell number following CpG stimulation” value with CD19+ B cells is recorded as “increased”. The “B cell number following CpG system stimulation” value in the experiment on CD19+ B cells (CpG DNA, anti-Ig, IL-2, IL-10) is “increased”. Also, in experiment [4], the “frequency of IgG positive cell clones” value is reported as “increase”. The “specificity over Chk1 and over 30 other serine/threonine kinases” value in experiment [5] is listed as “exquisite specificity”.
